# Reference: article PMC10178166, “NanoLuc Luciferase as a Fluorogen-Activating Protein for GFP Chromophore Based Fluorogens” (International Journal of Molecular Sciences, 2023)
# Read-outs that look alike come from different tables or passages of the source.
# Biological target: T1, NanoLuc (Oplophorus gracilirostris, UniProt Q9GV45, A31E/A60N/A81I/F95D/I117V/K70R/L54V/L99Q/M102K/N193R/P142E/Q151K/Q38R/Q45L/V71I/Y165I)
# T1 construct: Engineered 19 kDa subunit variant (NanoLuc, about 171 residues, no signal peptide)
# Test: spectrofluorometric titration
# Assay type: binding
# Excerpt: spectrofluorometric titration on NanoLuc
# T1 sequence (Q9GV45 28-196 with the stated changes): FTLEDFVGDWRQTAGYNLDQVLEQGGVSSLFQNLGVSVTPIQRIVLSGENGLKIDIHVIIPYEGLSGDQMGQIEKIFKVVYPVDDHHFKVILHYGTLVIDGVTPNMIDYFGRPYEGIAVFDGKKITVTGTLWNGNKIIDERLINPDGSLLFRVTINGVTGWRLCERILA
smiles,measurement,setting,value
O=C1/C(=C/c2ccc[nH]2)N=C(/C=C/c2ccccc2)N1Cc1ccccc1 (mixture of isomers) [4bc],Kd,read-out: [drawing 2] / [drawing 5] / 4bc,590 ± 40 nM
O=C1/C(=C/c2ccc[nH]2)N=C(/C=C/c2cccs2)N1Cc1ccccc1 (mixture of isomers) [4bh],Kd,read-out: [drawing 2] / [drawing 4] / 4bh,320 ± 20 nM
O=C1/C(=C/c2ccc[nH]2)N=C(/C=C/c2ccccc2)N1CCc1ccc(O)cc1 (mixture of isomers) [4cc],Kd,read-out: [drawing 3] / [drawing 7] / 4cc,550 ± 40 nM
